Common to all, as to experiment: relative cell number vs DMSO control (72 h) (% of DMSO); higher = less growth inhibition (more cells)
What all share (settings): sgRNA knockout: sgNT

One assay relates to BT-20. As to the method: (§1)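 QMAP-Seq: a pool of 5 breast cancer cell lines (ZR-75-1, SKBR3, HCC-38, MDA-MB-231, BT-20), each carrying 12 doxycycline-inducible Cas9 sgRNA perturbations (11 knockouts plus non-targeting sgNT), was treated with compounds for 72 h at four 10-fold doses (10 nM-10 uM or 1 nM-1 uM range). Barcodes were amplified and sequenced, and cell number was interpolated from 293T spike-in standard curves. The result is expressed as % of the median of DMSO wells. Two biological replicates.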

Another assay deals with HCC-38. Here is the method:
as §1

The subject of the next assay is ZR-75-1. Here is the method:
as §1

The next assay concerns MDA-MB-231. Here is the method: as §1
For a further assay, the system named is SKBR3. Here is the method: as §1

SMILES strings stand for the structures. ± gives the standard deviation of the averaged measurements.

As for `Cn1cnc2c(F)c(Nc3ccc(Br)cc3Cl)c(C(=O)NOCCO)cc21` [Selumetinib], the relative cell number with BT-20 (10 nM) came to 80.6 ± 8.9; in the assay on BT-20 (100 nM), 67 ± 3.8; in the assay with BT-20 (1000 nM) it was 99.2 ± 31; in the assay with BT-20 (10000 nM), 80.9 ± 20; with HCC-38 (10 nM), 96.6 ± 6.1; in the assay on HCC-38 (100 nM), 85.3 ± 4.4. For the same molecule, the relative cell number amounted to 84.4 ± 8.8 in the assay on HCC-38 (1000 nM); 92.3 ± 3.6 with HCC-38 (10000 nM); 71 ± 10 in the assay on ZR-75-1 (10 nM); 67 ± 25 with ZR-75-1 (100 nM); 67.5 ± 21 in the assay on ZR-75-1 (1000 nM); 59.2 ± 5.8 with ZR-75-1 (10000 nM). The relative cell number in the assay on MDA-MB-231 (10 nM) was found to be 88.9 ± 25; in the assay on MDA-MB-231 (100 nM), 74.2 ± 37; in the assay with MDA-MB-231 (1000 nM), 96.3 ± 23; with MDA-MB-231 (10000 nM), 57.1 ± 36; in the assay with SKBR3 (10 nM), 97.8 ± 51; in the assay on SKBR3 (100 nM), 90.1 ± 60. Moreover, the relative cell number with SKBR3 (1000 nM) worked out at 103 ± 8.6; in the assay on SKBR3 (10000 nM) it was 73.3 ± 5.1.
`CC(C)[C@H](O)C(=O)N[C@@H](C)C(=O)N[C@@H]1C(=O)N(C)CCc2ccccc21` [Semagacestat]: the relative cell number in the assay on BT-20 (10 nM) was determined as 92.3 ± 13; with BT-20 (100 nM) it was 86.5 ± 12; with BT-20 (1000 nM), 113 ± 9.9; with BT-20 (10000 nM), 113 ± 23; with HCC-38 (10 nM), 107 ± 6.6; in the assay on HCC-38 (100 nM), 107 ± 4.2. The relative cell number with HCC-38 (1000 nM) came to 118 ± 3.2; with HCC-38 (10000 nM), 84.4 ± 1.2; in the assay with ZR-75-1 (10 nM), 112 ± 22; in the assay on ZR-75-1 (100 nM), 92 ± 28; in the assay with ZR-75-1 (1000 nM), 89.7 ± 24; in the assay with ZR-75-1 (10000 nM), 132 ± 19. For the same molecule, the relative cell number amounted to 126 ± 5.3 in the assay on MDA-MB-231 (10 nM); 83.5 ± 15 in the assay on MDA-MB-231 (100 nM); 91.7 ± 11 in the assay with MDA-MB-231 (1000 nM); 96.9 ± 12 with MDA-MB-231 (10000 nM); 112 ± 42 in the assay with SKBR3 (10 nM); 83.1 ± 31 in the assay with SKBR3 (100 nM). Besides, the results for the relative cell number with SKBR3 (1000 nM) and with SKBR3 (10000 nM) were 72.2 ± 6.8 and 107 ± 42, respectively.
As for `CCCc1nn(C)c2c(=O)[nH]c(-c3cc(S(=O)(=O)N4CCN(C)CC4)ccc3OCC)nc12` [Sildenafil], the relative cell number with BT-20 (10 nM) is 95.7 ± 16; with BT-20 (100 nM), 110 ± 2.7; with BT-20 (1000 nM), 95.2 ± 0.97; in the assay with BT-20 (10000 nM), 107 ± 3.9; in the assay with HCC-38 (10 nM), 89.5 ± 15; in the assay with HCC-38 (100 nM), 92.7 ± 4.1. Besides, the relative cell number was found to be 103 ± 9.7 in the assay on HCC-38 (1000 nM); 124 ± 18 in the assay on HCC-38 (10000 nM); 105 ± 9.5 in the assay on ZR-75-1 (10 nM); 117 ± 58 in the assay on ZR-75-1 (100 nM); 86.3 ± 26 with ZR-75-1 (1000 nM); 57.6 ± 2.1 in the assay with ZR-75-1 (10000 nM). In addition, the relative cell number was found to be 114 ± 8.2 with MDA-MB-231 (10 nM); 85 ± 15 in the assay with MDA-MB-231 (100 nM); 97.7 ± 22 in the assay on MDA-MB-231 (1000 nM); 57.1 ± 8.9 in the assay on MDA-MB-231 (10000 nM); 82.23 ± 0.8 in the assay with SKBR3 (10 nM); 91.7 ± 25 in the assay on SKBR3 (100 nM). In addition, the results for the relative cell number in the assay with SKBR3 (1000 nM) and in the assay on SKBR3 (10000 nM) were 62.7 ± 0.37 and 68.1 ± 16, respectively.
Take `CCC(C)(C)C(=O)O[C@H]1C[C@@H](C)C=C2C=C[C@H](C)[C@H](CC[C@@H]3C[C@@H](O)CC(=O)O3)[C@H]21` [Simvastatin]: the relative cell number is 108 ± 18 with BT-20 (10 nM); 72.5 ± 13 in the assay on BT-20 (100 nM); 89.7 ± 26 with BT-20 (1000 nM); 91.4 ± 19 in the assay on BT-20 (10000 nM); 90.5 ± 2.1 in the assay on HCC-38 (10 nM); 96 ± 21 with HCC-38 (100 nM). Besides, the relative cell number stood at 103 ± 12 in the assay on HCC-38 (1000 nM); 87.5 ± 13 in the assay with HCC-38 (10000 nM); 95.6 ± 57 in the assay on ZR-75-1 (10 nM); 75.2 ± 6 in the assay on ZR-75-1 (100 nM); 109 ± 39 with ZR-75-1 (1000 nM); 75.6 ± 20 with ZR-75-1 (10000 nM). In addition, the relative cell number with MDA-MB-231 (10 nM) is 130 ± 20; in the assay on MDA-MB-231 (100 nM), 115 ± 28; in the assay with MDA-MB-231 (1000 nM), 82.6 ± 8.9; in the assay with MDA-MB-231 (10000 nM), 34.2 ± 13; with SKBR3 (10 nM), 95.7 ± 4.9; with SKBR3 (100 nM) it was 60.8 ± 3.1. In addition, the values for the relative cell number with SKBR3 (1000 nM) and in the assay on SKBR3 (10000 nM) were 113 ± 23 and 66.7 ± 15, respectively.
For `N[C@@H](CC(=O)N1CCn2c(nnc2C(F)(F)F)C1)Cc1cc(F)c(F)cc1F` [Sitagliptin], the relative cell number with BT-20 (10 nM) stood at 107 ± 24; in the assay on BT-20 (100 nM), 90.6 ± 5.2; with BT-20 (1000 nM), 74.2 ± 14; with BT-20 (10000 nM) it was 123 ± 24; with HCC-38 (10 nM), 106 ± 10; in the assay with HCC-38 (100 nM), 99.2 ± 12. Also, the relative cell number is 106 ± 5 with HCC-38 (1000 nM); 92.2 ± 1.9 in the assay on HCC-38 (10000 nM); 118 ± 6.4 with ZR-75-1 (10 nM); 84.6 ± 64 with ZR-75-1 (100 nM); 124 ± 34 with ZR-75-1 (1000 nM); 96.5 ± 5.2 with ZR-75-1 (10000 nM). The relative cell number turned out to be 114 ± 63 in the assay with MDA-MB-231 (10 nM); 86.6 ± 14 in the assay with MDA-MB-231 (100 nM); 113 ± 32 with MDA-MB-231 (1000 nM); 120 ± 77 in the assay with MDA-MB-231 (10000 nM); 87.3 ± 2.4 in the assay with SKBR3 (10 nM); 89.5 ± 3.5 in the assay with SKBR3 (100 nM). Besides, the relative cell number with SKBR3 (1000 nM) is 82.6 ± 2.9; in the assay with SKBR3 (10000 nM), 89.8 ± 3.9.
Turning to `CNC(=O)c1cc(Oc2ccc(NC(=O)Nc3ccc(Cl)c(C(F)(F)F)c3)cc2)ccn1` [Sorafenib], the relative cell number is 116 ± 3.8 in the assay on BT-20 (10 nM); 100 ± 13 with BT-20 (100 nM); 108 ± 36 with BT-20 (1000 nM); 50.8 ± 8.9 with BT-20 (10000 nM); 97.1 ± 9.2 with HCC-38 (10 nM); 133 ± 45 with HCC-38 (100 nM). Also, the relative cell number in the assay on HCC-38 (1000 nM) amounted to 124 ± 8.8; in the assay on HCC-38 (10000 nM), 54.6 ± 2.4; in the assay on ZR-75-1 (10 nM), 70.2 ± 11; with ZR-75-1 (100 nM) it was 104 ± 2.9; with ZR-75-1 (1000 nM) it was 87.4 ± 19; in the assay with ZR-75-1 (10000 nM), 41.7 ± 17. The relative cell number in the assay with MDA-MB-231 (10 nM) was 86.7 ± 5; with MDA-MB-231 (100 nM) it was 93 ± 8.3; with MDA-MB-231 (1000 nM), 90.7 ± 10; in the assay on MDA-MB-231 (10000 nM), 41.1 ± 4.4; with SKBR3 (10 nM) it was 102 ± 4.4; with SKBR3 (100 nM) it was 97.1 ± 4.3. In addition, the relative cell number with SKBR3 (1000 nM) was 106 ± 2.8; with SKBR3 (10000 nM), 47.8 ± 11.

The values are drawn from the supplement of paper PMC7661543.
